The term melting point denotes the temperature of the solid-liquid transition.

Molecules are shown by their SMILES. Like-named read-outs stand apart in the source and are kept apart here.

This passage reports melting point and pest or weed control results from patent US6784137B2, “6-aryl-4-aminopicolinates and their use as herbicides” (Dow AgroSciences LLC, priority 2001, dated 2004).

Data set [1] has as its system Lambsquarter (Chenopodium album). Put plainly: Postemergence herbicidal activity, greenhouse spray. Particulars: Chenopodium album, post-emergence, 336 h, visual score after 2 weeks, read-out: Post-emergent % control CHEAL; for pest or weed control at 250 ppm: rate 250 ppm; for pest or weed control at 125 ppm: rate 125 ppm. The format is in vivo. The protocol:
(§1) When required to ensure good germination and healthy plants, a fungicide treatment and/or other chemical or physical treatment was applied. The plants were grown for 7-21 days in a greenhouse with an approximate 15 hr photoperiod which was maintained at about 23-29° C. during the day and 22-28° C. during the night. Nutrients and water were added on a regular basis and supplemental lighting was provided with overhead metal halide 1000-Watt lamps as necessary. The plants were employed for testing when they reached the first or second true leaf stage. A weighed amount, determined by the highest rate to be tested, of each test compound was placed in a 20 mL glass vial and was dissolved in 4 mL of a 97:3 v/v (volume/volume) mixture of acetone and dimethyl sulfoxide (DMSO) to obtain concentrated stock solutions. […] The concentrated stock solutions obtained were diluted with an aqueous mixture containing acetone, water, isopropyl alcohol, DMSO, At plus 411 F crop oil concentrate, and Triton X-155 surfactant in a 48.5:39:10:1.5:1.0:0.02 v/v ratio to obtain spray solutions of known concentration. The solutions containing the highest concentration to be tested were prepared by diluting 2 mL aliquots of the stock solution with 13 mL of the mixture and lower concentrations were prepared by serial dilution of the stock solution. Approximately 1.5 mL aliquots of each solution of known concentration were sprayed evenly onto each of the test plant pots using a DeVilbiss atomizer driven by compressed air pressure of 2 to 4 psi (140 to 280 kiloPascals) to obtain thorough coverage of each plant. Control plants were sprayed in the same manner with the aqueous mixture. […] The treated plants and control plants were placed in a greenhouse as described above and watered by sub-irrigation to prevent wash-off of the test compounds.

Data set [2] deals with Yellow nutsedge (Cyperus esculentus). Described as above. The class given is in vivo. The following applies: Cyperus, post-emergence, 336 h, visual score after 2 weeks, read-out: Post-emergent % control CYPES; for pest or weed control at 250 ppm: rate 250 ppm; for pest or weed control at 125 ppm: rate 125 ppm. As to the method: as §1
Data set [3] deals with Cocklebur (Xanthium strumarium). Described as above. The format is in vivo. Particulars: Xanthium strumarium, post-emergence, 336 h, visual score after 2 weeks, read-out: Post-emergent % control XANST; for pest or weed control at 250 ppm: rate 250 ppm; for pest or weed control at 125 ppm: rate 125 ppm. The protocol:
as §1

Data set [4] has as its system Barnyardgrass (Echinochloa crus-galli). Described as above. The class given is in vivo. Particulars: Echinochloa crus-galli, post-emergence, 336 h, visual score after 2 weeks, read-out: Post-emergent % control ECHCG; for pest or weed control at 250 ppm: rate 250 ppm; for pest or weed control at 125 ppm: rate 125 ppm. As to the method: as §1

Turning to `Nc1c(F)c(-c2ccc(Cl)cc2Cl)nc(C(=O)O)c1Cl` [Compound 199, 4-Amino-3-chloro-5-fluoro-6-(2,4-dichlorophenyl)pyridine-2-carboxylic acid], the melting point came to 152 °C. Besides, in data set [1] (Table 1), the pest or weed control at 250 ppm stood at 100%. In data set [1] (Table 2), the pest or weed control at 125 ppm turned out to be 100%. The pest or weed control at 250 ppm in data set [2] (Table 1) was 95%. Besides, the pest or weed control at 125 ppm in data set [2] (Table 2) was found to be 90%. In addition, the pest or weed control at 250 ppm in data set [3] (Table 1) stood at 100%. Besides, the pest or weed control at 125 ppm in data set [3] (Table 2) turned out to be 100%. In addition, the pest or weed control at 250 ppm in data set [4] (Table 1) was determined as 85%. Besides, in data set [4] (Table 2), the pest or weed control at 125 ppm amounted to 80%.
Take `Nc1c(F)c(C(=O)O)nc(-c2ccc(Cl)cc2F)c1F` [Compound 206, 4-Amino-3,5-difluoro-6-(4-chloro-2-fluorophenyl)pyridine-2-carboxylic acid]: the melting point was in the range of 155 to 156 °C. The pest or weed control at 500 ppm in data set [1] (Table 1, rate 500 ppm) worked out at 95%. Moreover, in data set [2] (Table 1, rate 500 ppm), the pest or weed control at 500 ppm was found to be 70%. For the same molecule, in data set [3] (Table 1, rate 500 ppm, 0 no injury, 100 complete kill), the pest or weed control at 500 ppm is 99%. Moreover, the pest or weed control at 500 ppm in data set [4] (Table 1, rate 500 ppm) is 85%.
Consider `Nc1cc(-c2ccc(Cl)s2)nc(C(=O)O)c1Cl` [Compound 215, 4-Amino-3-chloro-6-(5-chloro-2-thienyl)pyridine-2-carboxylic acid], for which the melting point fell in the range of 178 to 179 °C. The pest or weed control at 125 ppm in data set [1] (Table 1) came out at 100%. The pest or weed control at 125 ppm in data set [2] (Table 1) is 70%. For the same molecule, the pest or weed control at 125 ppm in data set [3] (Table 1) worked out at 100%. Moreover, in data set [4] (Table 1), the pest or weed control at 125 ppm was 70%.
`Nc1cc(-c2cc3ccccc3o2)nc(C(=O)O)c1Cl` [Compound 219, 4-Amino-6-(2-benzofuranyl)-3-chloropyridine-2-carboxylic acid]: the melting point came to 151 °C. The pest or weed control at 250 ppm in data set [1] (Table 1) worked out at 100%. Also, in data set [2] (Table 1), the pest or weed control at 250 ppm was found to be 0%. Besides, the pest or weed control at 250 ppm in data set [3] (Table 1) was 100%. In addition, the pest or weed control at 250 ppm in data set [4] (Table 1) was determined as 80%.
The molecule `Nc1cc(-c2cc3ccccc3s2)nc(C(=O)O)c1Cl` [Compound 224, 4-Amino-3-chloro-6-(2-benzothienyl)pyridine-2-carboxylic acid] registered a melting point of 176 °C. Moreover, the pest or weed control at 125 ppm in data set [1] (Table 1) worked out at 100%. Besides, the pest or weed control at 125 ppm in data set [2] (Table 1) worked out at 30%. The pest or weed control at 125 ppm in data set [3] (Table 1) is 100%. Moreover, the pest or weed control at 125 ppm in data set [4] (Table 1) was determined as 85%.
`Nc1cc(-c2ccc(Cl)nc2)nc(C(=O)O)c1Cl` [Compound 225, 4-Amino-3-chloro-6-(6-chloro-3-pyridinyl)pyridine-2-carboxylic acid] showed a melting point of 110 to 114 °C. Further, in data set [1] (Table 1), the pest or weed control at 125 ppm was 70%. For the same molecule, the pest or weed control at 125 ppm in data set [2] (Table 1) came to 60%. In addition, the pest or weed control at 125 ppm in data set [3] (Table 1) was determined as 90%. Besides, the pest or weed control at 125 ppm in data set [4] (Table 1) worked out at 40%.
